Results as given in patent publication US20200377518A1, “METHOD OF PREVENTING AND TREATING THROMBOSIS” (Rigel Pharmaceuticals, Inc., priority 2019, published 2020).

Legend:
[1] = molecular target: IgE- and IgG-mediated activation of Fc receptor signaling; conditions: read-out: EC50 for degranulation; cited from earlier work
[2] = system: monocytes/macrophages, neutrophils, B lymphocytes; conditions: cited from earlier work
[3] = system: ITP patients; assay: Fostamatinib in immune thrombocytic purpura (ITP) patients; assay type: in vivo, human
[4] = system: Transgenic HIT mice homozygous for both FcγRIIA and human PF4 and null for mouse PF4; assay: Inhibition of thrombosis in vivo, transgenic HIT mice, lung thrombi; conditions: chow containing 0.5, 1 and 2 g/kg of R788 for 3 days, KKO or HIT-IgG, then heparin, lungs 3 hours later
Excerpt: Transgenic HIT mice homozygous for both FcγRIIA and human PF4 and null for mouse PF4 are used to evaluate the effects of fostamatinib on immune complexes (IC)-induced thrombocytopenia and thrombosis. 6-12 weeks old transgenic male mice are fed the control chow or chow containing 0.5, 1 and 2 g/kg of R788 for 3 days prior to the injection of either the monoclonal HIT-like antibody KKO or IgG from HIT patients (HIT-IgG). For HIT-induced thrombocytopenia experiments, all mice received heparin subcutaneously at 1600 U/kg body weight once daily for 6 days, starting with first day after antibody injection. Retro-orbital blood collection is performed daily after anesthetizing the animals starting a day before HIT antibody injection to monitor thrombocytopenia by counting platelets using standard equipment.
To assess fostamatinib effect on thrombosis, the mice are fed with drug or vehicle chow followed by injection of the HIT antibodies as described. Next day, each animal is retro-orbitally infused with 1×10^8 Alexa750-labeled platelets from untreated syngeneic donor mice prior to heparin injection. Animals are terminated 3 hours later, their lungs are excised, perfused with PBS, fixed with 7% paraformaldehyde and imaged using Odyssey Imaging System (LI-COR Bio). Thrombi are counted and scored by intensity using NIS Elements software (Nikon). […]

[5] = system: C57Bl/6 WT male mice; assay: Deep vein thrombosis, inferior vena cava (IVC) stenosis model; assay type: in vivo; conditions: fostamatinib chow for 3 days; 48 hours after the surgery
Experimental: Mice are fed fostamatinib or vehicle chow for 3 days, anaesthetized using isoflurane and then subjected to laparotomy. After tying off the side branches of the IVC, the IVC is stenosed with a ligature and a 30-gauge spacer to maintain a small degree of blood flow. Mice are allowed to recover, then culled 48 hours after the surgery and the IVC are examined for the presence and size of thrombus.
For deep vein thrombosis assay methods generally, see, Low dose Btk inhibitors selectively block platelet activation by CLEC-2. Phillip L. R. Nicolson et al. Haematologica 2020 Jan. 16. pii: haematol. 2019.218545. doi: 10.3324/haematol.2019.218545

[6] = system: C57Bl6 mice; assay: Arterial thrombosis, ferric chloride injury model of carotid artery; assay type: in vivo; conditions: fostamatinib chow for 3 days; FeCl3 on carotid artery
Experimental: To investigate effect on arterial thrombosis, a ferric chloride injury model in mice is employed. 8-week-old C57Bl6 mice are fed fostamatinib or vehicle chow for 3 days, anaesthetized using mixture of ketamine (100 mg/kg)/xylazine (10 mg/kg) via intraperitoneal injection and have their right jugular vein exposed. Next, rhodamine 6G solution is injected into the right jugular vein to label platelets, exposed carotid artery (CA) staged at the microscope and the thrombosis is induced by applying a piece of filter paper (1×2 mm) saturated with FeCl3 solution directly on the CA. Thrombus formation is identified by accumulation of the fluorescent platelets, which is observed in real-time recording video images under the microscope.
For arterial thrombosis assay methods generally, see, Wei Li, Thomas M. McIntyre, Roy L. Silverstein. Ferric chloride-induced murine carotid arterial injury: A model of redox pathology. Redox Biology 1 (2013) 50-55, and Wei Li, Marvin Nieman, Anirban Sen Gupta. Ferric Chloride-induced Murine Thrombosis Models. J. Vis. Exp. (115), e54479, doi:10.3791/54479 (2016).

Compound | EC50 [1] [nM] | BCR-mediated activation of B lymphocytes [2] | Syk-dependent FcR-mediated activation of monocytes/macrophages and neutrophils [2] | platelet levels [3] | risk of thrombosis [3] | heparin induced thrombosis (lung thrombi counted and scored by intensity) [4] | heparin induced thrombosis (lung thrombi counted and scored by intensity) ([4]; listed as R788) | presence and size of thrombus in IVC [5] | arterial thrombus formation (accumulation of fluorescent platelets) [6]
COc1cc(Nc2ncc(F)c(Nc3ccc4c(n3)NC(=O)C(C)(C)O4)n2)cc(OC)c1OC [R406, 6-((5-fluoro-2-((3,4,5-trimethoxyphenyl)amino)pyrimidin-4-yl)amino)-2,2-dimethyl-2H-pyrido[3,2-b][1,4]oxazin-3(4H)-one] | 56 to 64 | blocked | blocked |  |  |  |  |  | 
COc1cc(Nc2ncc(F)c(Nc3ccc4c(n3)N(COP(=O)(O)O)C(=O)C(C)(C)O4)n2)cc(OC)c1OC [fostamatinib, [6-({5-Fluoro-2-[(3,4,5-trimethoxyphenyl)amino]-4-pyrimidinyl}amino)-2,2-dimethyl-3-oxo-2,3-dihydro-4H-pyrido[3,2-b][1,4]oxazin-4-yl]methyl dihydrogen phosphate] |  |  |  | increases platelet levels | does not appear to increase risk of thrombosis | effectively reduces heparin induced thrombosis | inhibits thrombosis in vivo | Relative lack of thrombus | Lack of thrombus formation
